Data taken from the supplement of paper PMC4862054.

Experiments:
Conditions in all cases: incubation time: 72 h
MCF-10A = test: drug sensitivity score (DSS), CellTiter-Glo (DSS (AUC-based score)); higher = stronger drug effect (viability inhibition or cytotoxicity); extreme values may be limits of the assay
In short: (§1)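 The area under the fitted dose-response curve was used to calculate the drug sensitivity score. Cells from breast cancer lines were incubated for 72 h in 384-well plates with compound at 5 concentrations spaced 10-fold over a 10,000-fold range specific to each compound. Plates were read for CellTox Green and then CellTiter-Glo, and normalised to 0.1 % DMSO and a positive kill control.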

CAL-51 [1] = test: as above
In short: as §1

HCC1599 [2] = test: as above
In short: as §1

BT-549 [3] = test: as above
In short: as §1

BT-474 [4] = test: as above
In short: as §1

CAL-85-1 [5] = test: as above
In short: as §1

MFM-223 [6] = test: as above
In short: as §1

MDA-MB-231 = test: drug sensitivity score (DSS), CellTiter-Blue viability (DSS (AUC-based score)); higher = stronger viability inhibition; extreme values may be limits of the assay
Method: (§2)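 DSRT with the CellTiter-Blue (resazurin reduction) viability readout, fluorescence 560/590 nm, 72 h incubation. Plates were normalised to DMSO and benzethonium chloride controls. DSS is computed from the area under the fitted dose-response curve (5 or 9 concentrations).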

CAL-120 = test: as above
Method: as §2

MDA-MB-436 = test: as above
Method: as §2

MDA-MB-468 = test: as above
Method: as §2

HCC1143 = test: as above
Method: as §2

Hs578T = test: as above
Method: as §2

HCC1937 = test: as above
Method: as §2

SK-BR-3 = test: as above
Method: as §2

CAL-51 [7] = test: as above
Method: as §2

HCC1599 [8] = test: as above
Method: as §2

BT-549 [9] = test: as above
Method: as §2

BT-474 [10] = test: as above
Method: as §2

DU-4475 = test: as above
Method: as §2

MDA-MB-453 = test: as above
Method: as §2

HDQ-P1 = test: as above
Method: as §2

CAL-85-1 [11] = test: as above
Method: as §2

MFM-223 [12] = test: as above
Method: as §2

CAL-148 = test: as above
Method: as §2

Row | SMILES | drug sensitivity score (MCF-10A) | drug sensitivity score (CAL-51 [1]) | drug sensitivity score (HCC1599 [2]) | drug sensitivity score (BT-549 [3]) | drug sensitivity score (BT-474 [4]) | drug sensitivity score (CAL-85-1 [5]) | drug sensitivity score (MFM-223 [6]) | drug sensitivity score (MDA-MB-231) | drug sensitivity score (CAL-120) | drug sensitivity score (MDA-MB-436) | drug sensitivity score (MDA-MB-468) | drug sensitivity score (HCC1143) | drug sensitivity score (Hs578T) | drug sensitivity score (HCC1937) | drug sensitivity score (SK-BR-3) | drug sensitivity score (CAL-51 [7]) | drug sensitivity score (HCC1599 [8]) | drug sensitivity score (BT-549 [9]) | drug sensitivity score (BT-474 [10]) | drug sensitivity score (DU-4475) | drug sensitivity score (MDA-MB-453) | drug sensitivity score (HDQ-P1) | drug sensitivity score (CAL-85-1 [11]) | drug sensitivity score (MFM-223 [12]) | drug sensitivity score (CAL-148)
1 | CC(=O)c1c(C)c2cnc(Nc3ccc(N4CCNCC4)cn3)nc2n(C2CCCC2)c1=O [Palbociclib] | 3.99 | 0.79 | 0 | 0 | 4.46 | 0 | 5.89 | – | – | – | – | – | – | – | – | – | – | – | – | – | – | – | – | – | –
2 | CC(=O)N(O)CCCCCNC(=O)CCC(=O)N(O)CCCCCNC(=O)CCC(=O)N(O)CCCCCN [Deferoxamine] | 0 | 3.33 | 1.95 | 5.68 | 0 | 0 | 0 | – | – | – | – | – | – | – | – | – | – | – | – | – | – | – | – | – | –
3 | CC(=O)c1c(C)c2cnc(Nc3ccc(N4CCNCC4)cn3)nc2n(C2CCCC2)c1=O | – | – | – | – | – | – | – | 9.09 | 8.76 | 0 | 0 | 6.22 | 2.19 | 0 | 0 | 5.13 | 0 | 0 | 0 | 0 | 8.21 | 0 | 0 | 0 | 0
4 | Cn1cnc2c(F)c(Nc3ccc(Br)cc3Cl)c(C(=O)NOCCO)cc21 [Selumetinib] | 17.3 | 0 | 0.803 | 0.661 | 7.93 | 0 | 0 | 13.7 | 0.649 | 0 | 0 | 12.6 | 1.17 | 2.95 | 0 | 0.877 | 3.63 | 0 | 0 | 25.4 | 0 | 4.32 | 6.78 | 0 | 0
5 | CC[C@@H]1C(=O)OC[C@@H]1Cc1cncn1C [Pilocarpine] | 0 | 0 | 0 | 0 | 0 | 0 | 0 | 0 | 0 | 0 | 0 | 0 | 0 | 0 | 0 | 0 | 0 | 0 | 0 | 0 | 0.965 | 0 | 0 | 0 | 0
6 | CC1(C)CNc2cc(NC(=O)c3cccnc3NCc3ccncc3)ccc21 [Motesanib] | 0 | 0 | 0 | 0 | 0 | 0 | 0 | 0 | 0 | 0 | 0 | 0 | 0 | 0 | 0 | 0 | 0 | 0 | 0 | 0 | 0 | 0 | 0 | 0 | 0
7 | COc1cc(F)c(F)c(Nc2ccc(I)cc2F)c1NS(=O)(=O)C1(C[C@H](O)CO)CC1 [Refametinib] | 23.6 | 0 | 0 | 2.33 | 8.51 | 10.4 | 5.74 | – | – | – | – | – | – | – | – | – | – | – | – | – | – | – | – | – | –
8 | COc1cc(F)c(F)c(Nc2ccc(I)cc2F)c1NS(=O)(=O)C1(C[C@H](O)CO)CC1 [RDEA119] | – | – | – | – | – | – | – | 18.7 | 7.36 | 0 | 4.71 | 8.17 | 8.25 | 5.85 | 0 | 6.65 | 0 | 0 | 0 | 28.1 | 5.64 | 11.4 | 10.3 | 5.52 | 0
9 | C[C@]1(O)C[C@@H](c2nc(-c3ccc4ccc(-c5ccccc5)nc4c3)c3c(N)nccn32)C1 [Linsitinib] | 12.5 | 0 | 2.37 | 0 | 3.89 | 2.88 | 0 | – | – | – | – | – | – | – | – | – | – | – | – | – | – | – | – | – | –
10 | Cn1cc(C2=Nc3cc(NC(=O)C(N)C4CCCCC4)cc4c3C2=CNNC4=O)cn1 (stereo not drawn) | 2.96 | 5.76 | 20.3 | 14.6 | 6.46 | 13.3 | 12.2 | – | – | – | – | – | – | – | – | – | – | – | – | – | – | – | – | – | –
11 | CC1(C)CCC(CN2CCN(c3ccc(C(=O)NS(=O)(=O)c4ccc(NCC5CCOCC5)c([N+](=O)[O-])c4)c(Oc4cnc5[nH]ccc5c4)c3)CC2)=C(c2ccc(Cl)cc2)C1 [ABT-199] | 0 | 1.71 | 0 | 0 | 0 | 0 | 0 | – | – | – | – | – | – | – | – | – | – | – | – | – | – | – | – | – | –
